pIC50: −log10 of the molar value. Structures can show the parent of a compound that is named as a salt. Where two headings read alike, the source gives them in different places. Where a SMILES comes first, the peptide text is derived from it. [ ]: non-standard residue; d: D form. The star is where a group is joined. NH(CH2)3NH(1-anthraquinonyl) = O=C1c2ccccc2C(=O)c2c(NCCCN*)cccc21; Nle = CCCC[C@H](N)C(=O)O; Nva = CCC[C@H](N)C(=O)O
Tests used:
[1] = tested on: MAC15A adenocarcinoma of the colon; assay: In vitro cytotoxicity against MAC15A adenocarcinoma of the colon, 96 hours exposure; type: cell-based
[2] = exposure time 96 hours, read-out: IC50
[3] = Mus musculus, exposure time 96 hours, read-out: IC50

Row | Structure (SMILES) | melting point | further results
1 | CCC[C@H](NC(=O)[C@H](C)N)C(=O)N[C@@H](CCC)C(=O)NCC(=O)N[C@@H](CC(C)C)C(=O)N1CCC[C@H]1C(=O)NCCCNc1cccc2c1C(=O)c1ccccc1C2=O [Example 46, 1-3-(L-Alanyl-L-norvalyl-L-norvalyl-glycyl-L-leucyl-L-prolylamino)-propylamino]anthraquinone trifluoroacetate] (H-A[Nva][Nva]GLP-{NH(CH2)3NH(1-anthraquinonyl)}) | – | pIC50 [1, 2]: 5.10
2 | NCC(=O)N[C@@H](Cc1ccccc1)C(=O)N1CCC[C@H]1C(=O)NCCCNc1cccc2c1C(=O)c1ccccc1C2=O.O=C(O)C(F)(F)F [Example 73, 1-[3-(Glycyl-L-phenylalanyl-L-prolylamino)propylamino]anthraquinone trifluoroacetate] | 129 °C | pIC50 ([1]; Mus musculus, 96 h): 5.60
3 | CC[C@H](C)[C@H](NC(=O)[C@@H](N)Cc1ccccc1)C(=O)NCC(=O)N[C@@H](Cc1ccccc1)C(=O)N1CCC[C@H]1C(=O)NCCCNc1cccc2c1C(=O)c1ccccc1C2=O.O=C(O)C(F)(F)F [Example 75, 1-[3-(L-Phenylalanyl-L-isoleucyl-glycyl-L-phenylalanyl-L-prolylamino)-propylamino]anthraquinone trifluoroacetate] | 132 to 136 °C | pIC50 [1, 3]: 4.70
4 | CC(C)C[C@H](NC(=O)[C@H](C)NC(=O)[C@H](C)N)C(=O)NCC(=O)N[C@@H](CC(C)C)C(=O)N1CCC[C@@H]1C(=O)NCCCNc1cccc2c1C(=O)c1ccccc1C2=O.O=C(O)C(F)(F)F [Example 14, 1-[3-(L-Alanyl-L-alanyl-L-leucyl-glycyl-L-leucyl-D-prolylamino)-propylamino]anthraquinone trifluoroacetate] | 132 °C | pIC50 [1, 3]: 4.42
5 | O=C(O)C(F)(F)F.O=C1c2ccccc2C(=O)c2c(NCCCNC(=O)[C@H]3CCCN3)cccc21 [Example 9, 1-[3-(D-Prolylamino)propylamino]anthraquinone trifluoroacetate] | 177 °C | pIC50 ([1]; Mus musculus, 96 h): 5.46
6 | CC(C)C[C@H](NC(=O)CN)C(=O)N1CCC[C@@H]1C(=O)NCCCNc1cccc2c1C(=O)c1ccccc1C2=O [Example 11, 1-[3-(Glycyl-L-leucyl-D-prolylamino)propylamino]anthraquinone trifluoroacetate] | – | pIC50 ([1]; Mus musculus, 96 h): 4.66
7 | CC[C@H](C)[C@H](NC(=O)[C@H](Cc1ccccc1)NC(=O)[C@H](CC(C)C)NC(=O)[C@@H](C)N)C(=O)NCC(=O)N[C@@H](Cc1ccccc1)C(=O)N1CCC[C@H]1C(=O)NCCCNc1cccc2c1C(=O)c1ccccc1C2=O.O=C(O)C(F)(F)F [Example 77, 1-[3-(D-Alanyl-L-Leucyl-L-Phenylalanyl-L-isoleucyl-glycyl-L-phenylalanyl-L-prolylamino)propylamino]anthraquinone trifluoroacetate] | 142 to 148 °C | pIC50 [1, 3]: 4.62
8 | CC(C)C[C@H](NC(=O)[C@@H](N)Cc1ccc(O)cc1)C(=O)NCC(=O)N[C@@H](CC(C)C)C(=O)N1CCC[C@H]1C(=O)NCCCNc1cccc2c1C(=O)c1ccccc1C2=O.O=C(O)C(F)(F)F (H-YLGLP-{NH(CH2)3NH(1-anthraquinonyl)}) | 184 to 188 °C | –
9 | CC(C)C[C@H](NC(=O)[C@H](Cc1ccc(O)cc1)NC(=O)[C@H](C)NC(=O)[C@@H](C)N)C(=O)NCC(=O)N[C@@H](CC(C)C)C(=O)N1CCC[C@H]1C(=O)NCCCNc1cccc2c1C(=O)c1ccccc1C2=O.O=C(O)C(F)(F)F | 190 to 194 °C | –
10 | CC(C)C[C@H](NC(=O)[C@H](C)NC(=O)[C@H](C)NC(=O)[C@@H](C)N)C(=O)NCC(=O)N[C@@H](CC(C)C)C(=O)N1CCC[C@@H]1C(=O)NCCCNc1cccc2c1C(=O)c1ccccc1C2=O.O=C(O)C(F)(F)F [Example 15, 1-[3-(D-Alanyl-L-alanyl-L-alanyl-L-leucyl-glycyl-L-leucyl-D-prolylamino)propylamino]anthraquinone trifluoroacetate] (H-[dA]AALGL[dP]-{NH(CH2)3NH(1-anthraquinonyl)}) | 166 °C | pIC50 ([1]; Mus musculus, 96 h): 4.40
11 | CCCC[C@H](NC(=O)[C@H](C)NC(=O)[C@H](C)N)C(=O)NCC(=O)N[C@@H](CC(C)C)C(=O)N1CCC[C@H]1C(=O)NCCCNc1cccc2c1C(=O)c1ccccc1C2=O.O=C(O)C(F)(F)F (H-AA[Nle]GLP-{NH(CH2)3NH(1-anthraquinonyl)}) | 176 °C | –
12 | CC[C@H](C)[C@H](N)C(=O)NCC(=O)N[C@@H](Cc1ccccc1)C(=O)N1CCC[C@H]1C(=O)NCCCNc1cccc2c1C(=O)c1ccccc1C2=O.O=C(O)C(F)(F)F [Example 74, 1-[3-(L-Isoleucyl-glycyl-L-phenylalanyl-L-prolylamino)propylamino]-anthraquinone trifluoroacetate] | 122 to 124 °C | pIC50 [1, 3]: 5.60
13 | CCC[C@H](NC(=O)CNC(=O)[C@H](CC(C)C)NC(=O)[C@H](C)NC(=O)[C@H](C)NC(=O)[C@@H](C)N)C(=O)N1CCC[C@H]1C(=O)NCCCNc1cccc2c1C(=O)c1ccccc1C2=O.O=C(O)C(F)(F)F | 192 to 196 °C | –
14 | CCCC[C@H](N)C(=O)NCC(=O)N[C@@H](CC(C)C)C(=O)N1CCC[C@H]1C(=O)NCCCNc1cccc2c1C(=O)c1ccccc1C2=O.O=C(O)C(F)(F)F (H-[Nle]GLP-{NH(CH2)3NH(1-anthraquinonyl)}) | 169 °C | –
15 | CC(C)C[C@H](N)C(=O)N1CCC[C@@H]1C(=O)NCCCNc1cccc2c1C(=O)c1ccccc1C2=O [Example 10, 1-[3-(L-Leucyl-D-prolylamino)propylamino]anthraquinone trifluoroacetate] | – | pIC50 ([1]; Mus musculus, 96 h): 5.15
16 | CCC[C@H](NC(=O)[C@H](C)NC(=O)[C@H](C)N)C(=O)NCC(=O)N[C@@H](CC(C)C)C(=O)N1CCC[C@H]1C(=O)NCCCNc1cccc2c1C(=O)c1ccccc1C2=O.O=C(O)C(F)(F)F (H-AA[Nva]GLP-{NH(CH2)3NH(1-anthraquinonyl)}) | 197 °C | –
17 | CCC[C@H](N)C(=O)N1CCC[C@H]1C(=O)NCCCNc1cccc2c1C(=O)c1ccccc1C2=O.O=C(O)C(F)(F)F | 190 to 194 °C | –
18 | CCC[C@H](NC(=O)[C@@H](N)CCC)C(=O)NCC(=O)N[C@@H](CC(C)C)C(=O)N1CCC[C@H]1C(=O)NCCCNc1cccc2c1C(=O)c1ccccc1C2=O.O=C(O)C(F)(F)F [Example 45, 1-[3-(L-Norvalyl-L-norvalyl-glycyl-L-leucyl-L-prolylamino)propyl-amino]anthraquinone trifluoroacetate] (H-[Nva][Nva]GLP-{NH(CH2)3NH(1-anthraquinonyl)}) | 174 to 176 °C | pIC50 [1, 3]: 5.40
19 | CSC[C@H](NC(=O)[C@H](Cc1ccc(O)cc1)NC(=O)[C@H](C)N)C(=O)NCC(=O)N[C@@H](CC(C)C)C(=O)N1CCC[C@H]1C(=O)NCCCNc1cccc2c1C(=O)c1ccccc1C2=O.O=C(O)C(F)(F)F (H-AYC(Me)GLP-{NH(CH2)3NH(1-anthraquinonyl)}) | 166 to 170 °C | –
20 | CC(C)C[C@H](NC(=O)[C@@H](N)Cc1ccccc1)C(=O)N1CCC[C@H]1C(=O)NCCCNc1cccc2c1C(=O)c1ccccc1C2=O.O=C(O)C(F)(F)F | 184 to 188 °C | –
21 | CCC[C@H](NC(=O)CNC(=O)[C@H](CC(C)C)NC(=O)[C@H](C)NC(=O)[C@H](C)N)C(=O)N1CCC[C@H]1C(=O)NCCCNc1cccc2c1C(=O)c1ccccc1C2=O.O=C(O)C(F)(F)F (H-AALG[Nva]P-{NH(CH2)3NH(1-anthraquinonyl)}) | 188 °C | –
22 | CCC[C@H](NC(=O)[C@H](C)NC(=O)[C@@H](C)N)C(=O)N[C@@H](CCC)C(=O)NCC(=O)N[C@@H](CC(C)C)C(=O)N1CCC[C@H]1C(=O)NCCCNc1cccc2c1C(=O)c1ccccc1C2=O [Example 47, 1-[3-(D-AlanyI-L-alanyl-L-norvalyl-L-norvalyl-glycyl-L-leucyl-L-prolylamino)propylamino]anthraquinone trifluoroacetate] (H-[dA]A[Nva][Nva]GLP-{NH(CH2)3NH(1-anthraquinonyl)}) | – | pIC50 [1, 2]: 4.66
23 | CC[C@H](C)[C@H](NC(=O)[C@H](Cc1ccccc1)NC(=O)[C@@H](N)CC(C)C)C(=O)NCC(=O)N[C@@H](Cc1ccccc1)C(=O)N1CCC[C@H]1C(=O)NCCCNc1cccc2c1C(=O)c1ccccc1C2=O.O=C(O)C(F)(F)F [Example 76, 1-[3-(L-Leucyl-L-phenylalanyl-L-isoleucyl-glycyl-L-phenylalanyl-L-prolylamino)propylamino]anthraquinone trifluoroacetate] | 166 to 178 °C | pIC50 [1, 3]: 4.68
24 | CC[C@H](C)[C@H](N)C(=O)NCC(=O)N[C@@H](Cc1ccccc1)C(=O)N1CCC[C@@H]1C(=O)NCCCNc1cccc2c1C(=O)c1ccccc1C2=O.O=C(O)C(F)(F)F | 120 to 126 °C | –
25 | CC(C)C[C@H](NC(=O)[C@H](Cc1ccccc1)NC(=O)CN)C(=O)NCC(=O)N1CCC[C@@H]1C(=O)NCCCNc1cccc2c1C(=O)c1ccccc1C2=O.O=C(O)C(F)(F)F | 154 to 156 °C | –
26 | CSC[C@H](NC(=O)[C@H](C)NC(=O)[C@H](C)N)C(=O)NCC(=O)N[C@@H](CC(C)C)C(=O)N1CCC[C@H]1C(=O)NCCCNc1cccc2c1C(=O)c1ccccc1C2=O.O=C(O)C(F)(F)F (H-AAC(Me)GLP-{NH(CH2)3NH(1-anthraquinonyl)}) | 162 °C | –
27 | N[C@@H](Cc1ccccc1)C(=O)N1CCC[C@H]1C(=O)NCCCNc1cccc2c1C(=O)c1ccccc1C2=O.O=C(O)C(F)(F)F [Example 72, 1-[3-(L-Phenylalanyl-L-prolylamino)propylamino]anthraquinone trifluoroacetate] | 118 to 120 °C | pIC50 ([1]; Mus musculus, 96 h): 5.52
28 | CC(C)C[C@H](NC(=O)CNC(=O)[C@@H](N)CC(C)C)C(=O)N1CCC[C@@H]1C(=O)NCCCNc1cccc2c1C(=O)c1ccccc1C2=O [Example 12, 1-[3-(L-Leucyl-glycyl-L-leucyl-D-prolylamino)propylamino]-anthraquinone trifluoroacetate] (H-LGL[dP]-{NH(CH2)3NH(1-anthraquinonyl)}) | – | pIC50 ([1]; Mus musculus, 96 h): 4.52

From US20040248765A1, “Tumour targeting prodrugs activated by metallo matrixproteinases” (priority 2001, published 2004)
